# Reference: patent US20260007680A1, “Compounds and Their Use as PDE4 Activators” (Mironid Limited, priority 2022, published 2026)
# Tested on: m-IMCD3 cells
# Experiment: Inhibition of PGE2-stimulated in vitro cyst formation in 3D culture of m-IMCD3 cells (Experiment 4)
# Type: cell-based, mouse
# Conditions: 3D culture
# Experimental: HEK 293 and MDCK cells (Public Health England, Cell Culture Collections) were maintained in Dulbecco's Modified Eagle's Medium (DMEM) supplemented with 10% (v/v) fetal bovine serum (FBS) (Seralab), 2 mM L-glutamine and 100 U/ml penicillin streptomycin cocktail (ThermoFisher); termed complete media. Clonal HEK 293 cell lines were maintained in complete media supplemented with 0.6 mg/mL G418 (Enzo Life Sciences). Mouse inner medullary collecting duct (m-IMCD3) cells [American Type Culture Collection (ATCC)] were maintained in media consisting of DMEM/Hams F-12 50/50 Mix (DMEM F12; Corning) supplemented with penicillin streptomycin cocktail (100 U/ml) and FBS (10% v/v) (DMEM F12-10% FBS).
# The mouse Inner Medullary Collecting Duct cell line (m-IMCD3) spontaneously forms cystic spheroids in 3D culture with a Type 1 collagen/Matrigel extracellular matrix. This process can be stimulated with agents which raise intracellular cAMP and is used as an in vitro model for the formation of cystic structures in the kidneys of patients with ADPKD.
# Rat Collagen I (Fisher Scientific) is prepared on ice by neutralising with 1 M NaOH and diluting with a 2×volume of DMEM/F12+10% FBS. This is mixed 1:1.1 with ice cold Matrigel (Corning) for coating plates (coating mix), and 1:0.93 with Matrigel for cell plating (plating mix).
# The assay is conducted in the wells of a 96-well plate culture dish using a total volume of 130 μL of collagen/Matrigel/DMEM F12-10% FBS suspension in growth media for each matrix plug per individual well. Initially, 30 μL of collagen/Matrigel/DMEM F12-10% FBS (coating mix) is added into the well of a 96 well plate and the collagen is set to a gel by incubating at 37° C. for at least 15 minutes. A second layer of 100 μL collagen/Matrigel suspension (plating mix) containing m-IMCD3 cells (2.75×10^6 m-IMCD3 cells per 96-well plate) is layered over the coating mix and the collagen/Matrigel/cell mix again set to a gel by incubating at 37° C. Cell cultures are maintained at 37° C. in an atmosphere of 5% CO2, 95% air.
# Between 18 and 24 h after plating, test compound(s) as DMSO stock solutions [0.1% (v/v) final DMSO concentration] and PGE2 (100 nM final concentration) in DMEM F12-10% FBS are added in quadruplicate wells per condition. Media, together with the test compound and PGE2 are replenished after 2 or 3 days. After 6 days of culture z stack images of the wells are captured using the Nikon Eclipse Ti2-E microscope. Nikon General Analysis software is used to measure the following parameters in each well: the mean cyst area, the number of cysts, and the total cyst area.
# PDE4 long form activators inhibited in vitro cyst formation in m-IMCD3 cells. Data are shown in FIG. 2 and Table 4 as mean cyst area (%), compared to 100% for (DMSO+PGE2) and 0% for DMSO control.
row,Compound,"inhibition of PGE2-stimulated cyst formation in m-IMCD3 cells (FIG. 2, text)"
1,"CCN1CCC(c2nc3ccc(C(=O)N[C@H]4CCOc5ccccc54)cn3n2)CC1 [Example 51, (S)—N-(chroman-4-yl)-2-(1-ethylpiperidin-4-yl)-[1,2,4]triazolo[1,5-a]pyridine-6-carboxamide]",concentration-dependent inhibition

# Same assay, conditions: Mus musculus, mIMCD3, 144 h, 10 μM test compound, mean cyst area compared to 100% for (DMSO + PGE2) and 0% for DMSO control, read-out: % Cyst area* after incubation with 10 μM test compound
row,Compound,activity at 10 µM
1,"Cc1ccncc1-c1nc2cc(C(=O)N[C@H]3CCOc4ccccc43)ccc2[nH]1 [Example 1, (S)—N-(chroman-4-yl)-2-(4-methylpyridin-3-yl)-1H-benzo[d]imidazole-5-carboxamide]",26%
2,"Cc1ncccc1-c1nc2cc(C(=O)N[C@H]3CCOc4ccccc43)ccc2[nH]1 [Example 3, (S)—N-(chroman-4-yl)-2-(2-methylpyridin-3-yl)-1H-benzo[d]imidazole-5-carboxamide]",20%
3,"Cc1ccc(-c2nc3cc(C(=O)N[C@H]4CCOc5ccccc54)ccc3n2C)cn1 [Example 21, (S)—N-(chroman-4-yl)-1-methyl-2-(6-methylpyridin-3-yl)-1H-benzo[d]imidazole-5-carboxamide]",3%
4,"Cc1ncccc1-c1nc2cc(C(=O)N[C@H]3CCOc4ccccc43)ccc2n1C [Example 22, (S)—N-(chroman-4-yl)-1-methyl-2-(2-methylpyridin-3-yl)-1H-benzo[d]imidazole-5-carboxamide]",18%
5,"Cc1cncc(-c2nc3cc(C(=O)N[C@H]4CCOc5ccccc54)ccc3n2C)c1 [Example 23, (S)—N-(chroman-4-yl)-1-methyl-2-(5-methylpyridin-3-yl)-1H-benzo[d]imidazole-5-carboxamide]",12%
6,"Cn1c(-c2cccnc2)nc2cc(C(=O)N[C@H]3CCOc4ccccc43)ccc21 [Example 24, (S)—N-(chroman-4-yl)-1-methyl-2-(pyridin-3-yl)-1H-benzo[d]imidazole-5-carboxamide]",21%
7,"Cn1c(N2CCNCC2)nc2ccc(C(=O)N[C@H]3CCOc4ccccc43)cc21 [Example 31, (S)—N-(chroman-4-yl)-1-methyl-2-(piperazin-1-yl)-1H-benzo[d]imidazole-6-carboxamide]",3%
8,"Cn1c(N2CCNCC2)nc2cc(C(=O)N[C@H]3CCOc4ccccc43)ccc21 [Example 33, (S)—N-(chroman-4-yl)-1-methyl-2-(piperazin-1-yl)-1H-benzo[d]imidazole-5-carboxamide]",19%
9,"O=C(N[C@H]1CCOc2ccccc21)c1ccc2nc(N3CCNCC3)nn2c1 [Example 40, (S)—N-(chroman-4-yl)-2-(piperazin-1-yl)-[1,2,4]triazolo[1,5-a]pyridine-6-carboxamide]",11%
10,"CCN1CCN(c2nc3ccc(C(=O)N[C@H]4CCOc5ccccc54)cn3n2)CC1 [Example 45, (S)—N-(chroman-4-yl)-2-(4-ethylpiperazin-1-yl)-[1,2,4]triazolo[1,5-a]pyridine-6-carboxamide]",15%
11,"CC(C)N1CCN(c2nc3ccc(C(=O)N[C@H]4CCOc5ccccc54)cn3n2)CC1 [Example 46, (S)—N-(chroman-4-yl)-2-(4-isopropylpiperazin-1-yl)-[1,2,4]triazolo[1,5-a]pyridine-6-carboxamide]",4%
12,"O=C(N[C@H]1CCc2ccccc21)c1ccc2nc(N3CCNCC3)nn2c1 [Example 48, (S)—N-(2,3-dihydro-1H-inden-1-yl)-2-(piperazin-1-yl)-[1,2,4]triazolo[1,5-a]pyridine-6-carboxamide]",22%
13,"CN1CCC(c2nc3ccc(C(=O)N[C@H]4CCOc5ccccc54)cn3n2)CC1 [Example 50, (S)—N-(chroman-4-yl)-2-(1-methylpiperidin-4-yl)-[1,2,4]triazolo[1,5-a]pyridine-6-carboxamide]",6%
14,"CCN1CCC(c2nc3ccc(C(=O)N[C@H]4CCOc5ccccc54)cn3n2)CC1 [Example 51, (S)—N-(chroman-4-yl)-2-(1-ethylpiperidin-4-yl)-[1,2,4]triazolo[1,5-a]pyridine-6-carboxamide]",6%
15,"Cc1ncccc1-c1nc2cc(C(=O)N[C@H]3CCOc4ccccc43)ccn2n1 [Example 52, (S)—N-(chroman-4-yl)-2-(2-methylpyridin-3-yl)-[1,2,4]triazolo[1,5-a]pyridine-7-carboxamide]",19%
16,"CN1CCN(c2nc3cc(C(=O)N[C@H]4CCOc5ccccc54)ccn3n2)CC1 [Example 56, (S)—N-(chroman-4-yl)-2-(4-methylpiperazin-1-yl)-[1,2,4]triazolo[1,5-a]pyridine-7-carboxamide]",14%

row,Compound,activity at 10 µM
1,"O=C(N[C@H]1CCOc2ccccc21)c1ccn2nc(N3CCCCC3)nc2c1 [Example 59, (S)—N-(chroman-4-yl)-2-(piperidin-1-yl)-[1,2,4]triazolo[1,5-a]pyridine-7-carboxamide]",26%
2,"CCN1CCN(c2nc3cc(C(=O)N[C@H]4CCOc5ccccc54)ccn3n2)CC1 [Example 60, (S)—N-(chroman-4-yl)-2-(4-ethylpiperazin-1-yl)-[1,2,4]triazolo[1,5-a]pyridine-7-carboxamide]",18%
3,"CC(C)N1CCN(c2nc3cc(C(=O)N[C@H]4CCOc5ccccc54)ccn3n2)CC1 [Example 61, (S)—N-(chroman-4-yl)-2-(4-isopropylpiperazin-1-yl)-[1,2,4]triazolo[1,5-a]pyridine-7-carboxamide]",10%
4,"O=C(N[C@H]1CCc2ccccc21)c1ccn2nc(N3CCNCC3)nc2c1 [Example 62, (S)—N-(2,3-dihydro-1H-inden-1-yl)-2-(piperazin-1-yl)-[1,2,4]triazolo[1,5-a]pyridine-7-carboxamide]",0%
5,"CN1CCN(c2nc3cc(C(=O)N[C@H]4CCc5ccccc54)ccn3n2)CC1 [Example 64, (S)—N-(2,3-dihydro-1H-inden-1-yl)-2-(4-methylpiperazin-1-yl)-[1,2,4]triazolo[1,5-a]pyridine-7-carboxamide]",1%
6,"O=C(NC1CCCC1)c1ccc2nc(N3C4CCC3CNC4)cn2c1 [Example 67, 2-(3,8-diazabicyclo[3.2.1]octan-8-yl)-N-cyclopentylimidazo[1,2-a]pyridine-6-carboxamide]",27%
7,"O=C(N[C@H]1CCOc2ccccc21)c1cnc2cc(N3CCNCC3)nn2c1 [Example 68, (S)—N-(chroman-4-yl)-2-(piperazin-1-yl)pyrazolo[1,5-a]pyrimidine-6-carboxamide]",9%
8,"CN1CCN(c2cc3ncc(C(=O)N[C@H]4CCOc5ccccc54)cn3n2)CC1 [Example 69, (S)—N-(chroman-4-yl)-2-(4-methylpiperazin-1-yl)pyrazolo[1,5-a]pyrimidine-6-carboxamide]",7%
9,"CCN1CCN(c2cc3ncc(C(=O)N[C@H]4CCOc5ccccc54)cn3n2)CC1 [Example 70, (S)—N-(chroman-4-yl)-2-(4-ethylpiperazin-1-y)pyrazolo[1,5-a]pyrimidine-6-carboxamide]",5%
10,"CCN1CCN(c2cc3ncc(C(=O)NC4CCCCC4)cn3n2)CC1 [Example 73, N-cyclohexyl-2-(4-ethylpiperazin-1-yl)pyrazolo[1,5-a]pyrimidine-6-carboxamide]",-3%
11,"CCN1CCN(c2cc3ncc(C(=O)N[C@H]4CCc5ccccc54)cn3n2)CC1 [Example 75, (S)—N-(2,3-dihydro-1H-inden-1-yl)-2-(4-ethylpiperazin-1-yl)pyrazolo[1,5-a]pyrimidine-6-carboxamide]",19%
12,"CN1CCN(c2cc3ncc(C(=O)NC4CCCC4)cn3n2)CC1 [Example 76, N-cyclopentyl-2-(4-methylpiperazin-1-yl)pyrazolo[1,5-a]pyrimidine-6-carboxamide]",9%
13,"CN1CCN(c2cc3ncc(C(=O)NC4CCCCC4)cn3n2)CC1 [Example 77, N-cyclohexyl-2-(4-methylpiperazin-1-yl)pyrazolo[1,5-a]pyrimidine-6-carboxamide]",0%
14,"O=C(NC1CCCC1)c1cnc2cc(N3C4CCC3CNC4)nn2c1 [Example 80, 2-(3,8-diazabicyclo[3.2.1]octan-8-yl)-N-cyclopentylpyrazolo[1,5-a]pyrimidine-6-carboxamide]",14%
15,"CN1CC2CCC(C1)N2c1cc2ncc(C(=O)NC3CCCC3)cn2n1 [Example 81, N-cyclopentyl-2-(3-methyl-3,8-diazabicyclo[3.2.1]octan-8-yl)pvrazolo[1,5-a]pyrimidine-6-carboxamide]",-3%
